# Assay results as given in US8758816B2, “Compositions comprising azelastine and methods of use thereof” (priority 2004, dated 2014).
# Where a name gives a salt, the structure may show the parent alone.
# Tested on: patients with seasonal allergic rhinitis (SAR)
# Assay: MP 428 two-week randomized double-blind study: Total Nasal Symptom Score (TNSS), change from baseline
# Type: in vivo, human
# Set-up: key to Change from Baseline in AM TNSS, Mean / Change from Baseline in AM TNSS, LS Mean / Change from Baseline in AM TNSS, Median: TNSS sum of 4 symptoms each 0-3 (0=none, 3=severe); change from baseline
# Settings: for AUC of Change from Baseline in TNSS (AM and PM Combined), Mean / AUC of Change from Baseline in TNSS (AM and PM Combined), Median / AUC of Change from Baseline in TNSS (AM and PM Combined), LS Mean: Day 1 to Day 14; for AUC of Change from Baseline in TNSS (AM and PM Combined), LS Mean: ANCOVA
# Procedure: A two-week, randomized, double-blind study, which evaluated the effects of the co-administration of ASTELIN® (azelastine hydrochloride (HCl)) and FLONASE® (fluticasone propionate) compared to either product alone in patients with seasonal allergic rhinitis (SAR) was conducted during the 2006 Texas mountain cedar season. After a 5-day placebo lead-in period, 151 patients with moderate-to-severe allergic rhinitis symptoms were randomized to either: (1) (49 total patients) ASTELIN® (azelastine hydrochloride (HCl)) plus placebo saline nasal spray 2 sprays per nostril, 15 minutes apart, twice daily (AM & PM); (2) (50 total patients) FLONASE® (fluticasone propionate) plus placebo saline nasal spray, 2 sprays per nostril, 15 minutes apart, once daily (AM) and two sessions of placebo saline nasal spray, 2 sprays per nostril, 15 minutes apart (PM); or (3) (52 total patients) the co-administration of ASTELIN® (azelastine hydrochloride (HCl)) 2 sprays per nostril plus FLONASE® (fluticasone propionate) 2 sprays per nostril (AM), 15 minutes apart, and ASTELIN® (azelastine hydrochloride (HCl)) 2 sprays per nostril plus placebo saline nasal spray, 15 minutes apart, (PM) for a 2-week double-blind treatment period.
# The primary efficacy variable was the change from baseline in the Total Nasal Symptom Score (TNSS), which comprised sneezing, itchy nose, runny nose, and nasal congestion (individual symptoms scores were assigned a value between 0 and 3, where 0=no symptoms and 3=severe symptoms). This study was not statistically designed to assess the differences between ASTELIN® and FLONASE®.
# [1] = Day 12, Per-Protocol Population
# [2] = Day 13, Intent-to-Treat Population
# [3] = Day 13, Per-Protocol Population
# [4] = Day 14, Intent-to-Treat Population
# [5] = Day 14, Per-Protocol Population
# [6] = Overall (Day 2 to Day 14), Intent-to-Treat Population
# [7] = Overall (Day 2 to Day 14), Per-Protocol Population
smiles,measurement,setting,value
"CN1CCCC(n2nc(Cc3ccc(Cl)cc3)c3ccccc3c2=O)CC1 (racemic) [Azelastine, (±)-1-(2H)-phthalazinone, 4-[(4-chlorophenyl)methyl]-2-(hexahydro-1-methyl-1H-azepin-4-yl)-, mono-hydrochloride]","Percent Change from Baseline in PM TNSS, Median","Day 12, Intent-to-Treat Population",−25.00%
same,"Change from Baseline in AM and PM Combined TNSS, LS Mean","Day 12, Intent-to-Treat Population, ANCOVA model",−5.46
same,"Change from Baseline in AM and PM Combined TNSS, LS Mean",[1],−5.40
same,"Change from Baseline in AM and PM Combined TNSS, Mean",[1],−5.54
same,"Change from Baseline in AM and PM Combined TNSS, Median",[1],−5.00
same,"Percent Change from Baseline in AM and PM Combined TNSS, LS Mean",[1],−27.82%
same,"Percent Change from Baseline in AM and PM Combined TNSS, Mean",[1],−28.25%
same,"Percent Change from Baseline in AM and PM Combined TNSS, Median",[1],−25.86%
same,"Change from Baseline in AM TNSS, LS Mean",[2],−2.55
same,"Change from Baseline in AM TNSS, Mean",[2],−2.50
same,"Change from Baseline in AM TNSS, Median",[2],−1.80
same,"Change from Baseline in AM and PM Combined TNSS, Mean",[2],−5.70
same,"Change from Baseline in AM and PM Combined TNSS, Median",[2],−5.30
same,"Change from Baseline in PM TNSS, LS Mean",[2],−3.11
same,"Change from Baseline in PM TNSS, Mean",[2],−3.21
same,"Change from Baseline in PM TNSS, Median",[2],−3.00
same,"Percent Change from Baseline in AM TNSS, LS Mean",[2],−26.36%
same,"Percent Change from Baseline in AM TNSS, Mean",[2],−26.20%
same,"Percent Change from Baseline in AM TNSS, Median",[2],−18.37%
same,"Percent Change from Baseline in AM and PM Combined TNSS, LS Mean",[2],−29.24%
same,"Percent Change from Baseline in AM and PM Combined TNSS, Mean",[2],−29.35%
same,"Percent Change from Baseline in AM and PM Combined TNSS, Median",[2],−26.15%
same,"Percent Change from Baseline in PM TNSS, LS Mean",[2],−32.19%
same,"Percent Change from Baseline in PM TNSS, Mean",[2],−32.27%
same,"Percent Change from Baseline in PM TNSS, Median",[2],−33.33%
same,"Change from Baseline in AM and PM Combined TNSS, LS Mean","Day 13, Intent-to-Treat Population, ANCOVA model",−5.65
same,"Change from Baseline in AM and PM Combined TNSS, LS Mean",[3],−5.59
same,"Change from Baseline in AM and PM Combined TNSS, Mean",[3],−5.70
same,"Change from Baseline in AM and PM Combined TNSS, Median",[3],−5.30
same,"Percent Change from Baseline in AM and PM Combined TNSS, LS Mean",[3],−29.06%
same,"Percent Change from Baseline in AM and PM Combined TNSS, Mean",[3],−29.35%
same,"Percent Change from Baseline in AM and PM Combined TNSS, Median",[3],−26.15%
same,"Change from Baseline in AM TNSS, LS Mean",[4],−2.56
same,"Change from Baseline in AM TNSS, Mean",[4],−2.52
same,"Change from Baseline in AM TNSS, Median",[4],−2.00
same,"Change from Baseline in AM and PM Combined TNSS, Mean",[4],−5.62
same,"Change from Baseline in AM and PM Combined TNSS, Median",[4],−5.30
same,"Change from Baseline in PM TNSS, LS Mean",[4],−3.00
same,"Change from Baseline in PM TNSS, Mean",[4],−3.10
same,"Change from Baseline in PM TNSS, Median",[4],−2.80
same,"Percent Change from Baseline in AM TNSS, LS Mean",[4],−26.51%
same,"Percent Change from Baseline in AM TNSS, Mean",[4],−26.44%
same,"Percent Change from Baseline in AM TNSS, Median",[4],−20.00%
same,"Percent Change from Baseline in AM and PM Combined TNSS, LS Mean",[4],−28.70%
same,"Percent Change from Baseline in AM and PM Combined TNSS, Mean",[4],−28.86%
same,"Percent Change from Baseline in AM and PM Combined TNSS, Median",[4],−25.00%
same,"Percent Change from Baseline in PM TNSS, LS Mean",[4],−31.07%
same,"Percent Change from Baseline in PM TNSS, Mean",[4],−31.14%
same,"Percent Change from Baseline in PM TNSS, Median",[4],−28.57%
same,"Change from Baseline in AM and PM Combined TNSS, LS Mean","Day 14, Intent-to-Treat Population, ANCOVA model",−5.56
same,"Change from Baseline in AM and PM Combined TNSS, LS Mean",[5],−5.50
same,"Change from Baseline in AM and PM Combined TNSS, Mean",[5],−5.62
same,"Change from Baseline in AM and PM Combined TNSS, Median",[5],−5.30
same,"Percent Change from Baseline in AM and PM Combined TNSS, LS Mean",[5],−28.52%
same,"Percent Change from Baseline in AM and PM Combined TNSS, Mean",[5],−28.86%
same,"Percent Change from Baseline in AM and PM Combined TNSS, Median",[5],−25.00%
same,"AUC of Change from Baseline in TNSS (AM and PM Combined), Mean",Intent-to-Treat Population,−60.38
same,"AUC of Change from Baseline in TNSS (AM and PM Combined), Median",Intent-to-Treat Population,−56.00
same,"AUC of Change from Baseline in TNSS (AM and PM Combined), LS Mean",Intent-to-Treat Population,−59.72
same,"Change from Baseline in AM TNSS, LS Mean",[6],−2.22
same,"Change from Baseline in AM TNSS, Mean",[6],−2.21
same,"Change from Baseline in AM TNSS, Median",[6],−1.86
same,"Change from Baseline in AM and PM Combined TNSS, Mean",[6],−4.73
same,"Change from Baseline in AM and PM Combined TNSS, Median",[6],−4.24
same,"Change from Baseline in PM TNSS, LS Mean",[6],−2.57
same,"Change from Baseline in PM TNSS, Mean",[6],−2.51
same,"Change from Baseline in PM TNSS, Median",[6],−2.38
same,"Percent Change from Baseline in AM TNSS, LS Mean",[6],−23.13%
same,"Percent Change from Baseline in AM TNSS, Mean",[6],−23.29%
same,"Percent Change from Baseline in AM TNSS, Median",[6],−19.23%
same,"Percent Change from Baseline in AM and PM Combined TNSS, LS Mean",[6],−24.78%
same,"Percent Change from Baseline in AM and PM Combined TNSS, Mean",[6],−24.47%
same,"Percent Change from Baseline in AM and PM Combined TNSS, Median",[6],−24.26%
same,"Percent Change from Baseline in PM TNSS, LS Mean",[6],−26.45%
same,"Percent Change from Baseline in PM TNSS, Mean",[6],−25.39%
same,"Percent Change from Baseline in PM TNSS, Median",[6],−21.68%
same,"Change from Baseline in AM and PM Combined TNSS, LS Mean","Overall (Day 2 to Day 14), Intent-to-Treat Population, ANCOVA model",−4.76
same,"Change from Baseline in AM and PM Combined TNSS, LS Mean",[7],−4.73
same,"Change from Baseline in AM and PM Combined TNSS, Mean",[7],−4.73
same,"Change from Baseline in AM and PM Combined TNSS, Median",[7],−4.24
same,"Percent Change from Baseline in AM and PM Combined TNSS, LS Mean",[7],−24.72%
same,"Percent Change from Baseline in AM and PM Combined TNSS, Mean",[7],−24.47%
same,"Percent Change from Baseline in AM and PM Combined TNSS, Median",[7],−24.26%
same,"AUC of Change from Baseline in TNSS (AM and PM Combined), Mean",Per-Protocol Population,−60.38
same,"AUC of Change from Baseline in TNSS (AM and PM Combined), Median",Per-Protocol Population,−56.00
same,"AUC of Change from Baseline in TNSS (AM and PM Combined), LS Mean",Per-Protocol Population,−59.23
